In the NIST ThermoML archive (doi:10.1016/j.jct.2013.10.039):
Numbers after ± are expanded uncertainties.

Conditions: Liquid, Closed cell (Static) method

Compound | vapor or sublimation pressure (313.15 K) [kPa] | vapor or sublimation pressure (323.15 K) [kPa] | vapor or sublimation pressure (333.15 K) [kPa] | vapor or sublimation pressure (343.15 K) [kPa] | vapor or sublimation pressure (353.15 K) [kPa] | vapor or sublimation pressure (363.15 K) [kPa] | vapor or sublimation pressure (373.15 K) [kPa] | vapor or sublimation pressure (383.15 K) [kPa] | vapor or sublimation pressure (393.15 K) [kPa] | vapor or sublimation pressure (351.81 K) [kPa] | further results
Cc1ccc(C)o1 [2,5-dimethylfuran] | 13.94 ± 0.15 | 21.54 ± 0.24 | 32.2 ± 0.35 | 46.74 ± 0.5 | 66.08 ± 0.71 | 91.23 ± 0.98 | 123.28 ± 1.3 | 163.43 ± 1.7 | 212.88 ± 2.3 | – | –
OCc1ccco1 [2-hydroxymethylfuran] | 0.242 ± 0.01 | 0.475 ± 0.02 | 0.89 ± 0.04 | 1.597 ± 0.019 | 2.755 ± 0.03 | 4.588 ± 0.049 | 7.398 ± 0.077 | 11.59 ± 0.12 | 17.68 ± 0.18 | 2.577 ± 0.029 | vapor or sublimation pressure (273.11 K): 0.009 ± 0.001 kPa; vapor or sublimation pressure (283.08 K): 0.022 ± 0.001 kPa; vapor or sublimation pressure (293.16 K): 0.053 ± 0.002 kPa; vapor or sublimation pressure (303.09 K): 0.115 ± 0.003 kPa; vapor or sublimation pressure (323.16 K): 0.471 ± 0.019 kPa; vapor or sublimation pressure (331.87 K): 0.815 ± 0.033 kPa; vapor or sublimation pressure (333.17 K): 0.882 ± 0.036 kPa; vapor or sublimation pressure (341.85 K): 1.479 ± 0.06 kPa; vapor or sublimation pressure (343.19 K): 1.611 ± 0.019 kPa; vapor or sublimation pressure (353.2 K): 2.787 ± 0.031 kPa; vapor or sublimation pressure (362.09 K): 4.368 ± 0.047 kPa; vapor or sublimation pressure (363.2 K): 4.649 ± 0.05 kPa; vapor or sublimation pressure (372.04 K): 7.065 ± 0.074 kPa; vapor or sublimation pressure (382.09 K): 11.09 ± 0.12 kPa; vapor or sublimation pressure (392.15 K): 17.1 ± 0.18 kPa; vapor or sublimation pressure (402.18 K): 25.11 ± 0.26 kPa; vapor or sublimation pressure (412.11 K): 36.53 ± 0.38 kPa
CC(=O)CC(C)C [4-methylpentan-2-one] | 5.882 ± 0.063 | 9.417 ± 0.098 | 14.56 ± 0.15 | 21.82 ± 0.23 | 31.8 ± 0.33 | 45.19 ± 0.46 | 62.78 ± 0.64 | 85.44 ± 0.87 | 114.12 ± 1.2 | 30.29 ± 0.31 | vapor or sublimation pressure (331.98 K): 13.85 ± 0.14 kPa; vapor or sublimation pressure (341.81 K): 20.72 ± 0.21 kPa; vapor or sublimation pressure (362.04 K): 43.51 ± 0.45 kPa; vapor or sublimation pressure (372.03 K): 60.56 ± 0.62 kPa; vapor or sublimation pressure (382.04 K): 82.62 ± 0.85 kPa; vapor or sublimation pressure (392.07 K): 110.74 ± 1.1 kPa
